{"source": "patent US20110256613A1", "about": "“Designer proton-channel transgenic algae for photobiological hydrogen production” (priority 2006, published 2011)", "key": {"[1]": {"test_system": "photosystem II (PSII) water-splitting complex in algal cells", "settings": "cited from earlier work"}, "algal system": {"test_system": "algal system", "test": "Competitive inhibition of photosynthetic H2 production by CO2", "type": "cell-based", "source_text": "(2). Competitive inhibition of photosynthetic H2 production by CO2. […] This inhibition of H2 evolution by CO2 has been characterized in experimental studies at ORNL. […] Therefore, unless the alga is genetically reengineered to control the Calvin cycle activity, photosynthetic H2 production would require a nearly CO2-free environment."}, "photosystem II (PSII)": {"test_system": "photosystem II (PSII)", "settings": "addition of HCO3− to HCO3−-depleted samples; cited from earlier work"}, "algal H2 production": {"test_system": "algal H2 production", "test": "Competitive inhibition of photosynthetic H2 production by O2", "type": "cell-based", "source_text": "(§1) (4). Competitive drainage of electrons by O2 in algal H2 production. We have recently discovered a new O2 sensitivity in algal H2 production that is distinct from the O2 sensitivity of hydrogenase per se. This O2 sensitivity is apparently linked to the photosynthetic H2 production pathway that is coupled to proton translocation across the thylakoid membrane. […] This inhibition is likely due to the background O2, which apparently serves as a terminal electron acceptor in competition with the H2-production pathway for photosynthetically generated electrons from water splitting. The Rubisco enzyme of the Calvin cycle is known to be also an oxygenase in addition to its carboxylase activity. […] That is, the drainage of electrons by O2 is likely to occur at the point of Rubisco, which is one of the key enzymes of the Calvin cycle. This competitive inhibition of H2 production by O2 is much more of a problem than the traditionally known O2 sensitivity of the hydrogenase per se. […] The competitive inhibition of H2 production by O2 is about 10 times more sensitive to O2 than the traditionally known O2 sensitivity of hydrogenase. The drainage of electrons by O2 in competition with the Fd/hydrogenase H2 production pathway is 10 time more sensitive to O2 than the O2 sensitivity of the hydrogenase. […]"}, "algal hydrogenase": {"test_system": "algal hydrogenase", "test": "O2 sensitivity of hydrogenase per se", "type": "biochemical", "source_text": "as §1"}}}
{"smiles": "N#CC(C#N)=NNc1cccc(Cl)c1", "note": "[CCCP, carbonyl cyanide m-chlorophenylhydrazone]", "values": [{"measurement": "side effects on photosynthetic activity (ADRY effect)", "setting": "[1]", "value": "undesirable side effects"}]}
{"smiles": "O=C=O", "note": "[CO2, carbon dioxide]", "values": [{"measurement": "steady-state H2 photoevolution after CO2 injection", "setting": "algal system; injection of 58 ppm CO2", "value": "inhibited to nearly zero"}, {"measurement": "CO2 concentration to which the algal system is sensitive", "setting": "algal system; lowest concentration, H2 photoevolution", "value": 30, "unit": "ppm"}]}
{"smiles": "O=C(O)O", "note": "[HCO3^−, Bicarbonate]", "values": [{"measurement": "stimulation of PSII electron-transport activity", "setting": "photosystem II (PSII)", "value": "6- to 7 fold"}]}
{"smiles": "O=O", "note": "[O2]", "values": [{"measurement": "O2 concentration that inhibits photosynthetic H2 production", "setting": "algal H2 production; lowest inhibiting concentration", "value": "500-1000 ppm"}, {"measurement": "O2 sensitivity of competitive inhibition of H2 production relative to O2 sensitivity of hydrogenase", "setting": "algal H2 production; ratio versus hydrogenase O2 sensitivity", "value": "about 10 times"}, {"measurement": "O2 concentration at which algal hydrogenase is still active", "setting": "algal hydrogenase", "value": 5000, "unit": "ppm"}]}
